Experimental data from patent US9782454B2 (LONGEVITY BIOTECH, INC., priority 2010, dated 2017).
Blank lines part the entries; values can stand above or below the compound they belong to. No end group written: not given here.

How the values were obtained:
[1] = biological target: T1, VIPR1 (Homo sapiens, UniProt P32241); assay: cAMP Hunter cell line, HitHunter cAMP XS+ assay, agonist mode; type: cell-based; details: for % Activity / Mean RLU: VIPR1 cells, cAMP
T1 sequence (P32241 31-457): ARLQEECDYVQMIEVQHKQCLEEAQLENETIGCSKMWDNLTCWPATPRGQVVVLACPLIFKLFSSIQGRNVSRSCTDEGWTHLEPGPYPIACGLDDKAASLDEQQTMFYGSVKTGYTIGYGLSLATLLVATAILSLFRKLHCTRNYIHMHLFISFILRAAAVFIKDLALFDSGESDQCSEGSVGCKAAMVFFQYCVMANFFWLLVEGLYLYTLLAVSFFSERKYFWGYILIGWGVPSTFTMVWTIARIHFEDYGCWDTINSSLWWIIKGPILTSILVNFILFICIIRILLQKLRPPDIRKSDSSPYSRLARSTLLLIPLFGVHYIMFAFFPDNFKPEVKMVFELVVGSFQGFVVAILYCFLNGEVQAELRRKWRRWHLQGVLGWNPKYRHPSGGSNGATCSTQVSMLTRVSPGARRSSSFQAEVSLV
Experimental: (§1) Once it was established that the cells were healthy and growing normally, cells were passaged from flasks using cell dissociation reagent buffer and seeded into white walled clear bottom 384-well microplates for compound profiling. For profiling, cells were seeded at a density of 10,000 cells per well in a total volume of 20 μL and were allowed to adhere and recover overnight prior to compound addition. cAMP modulation was determined using the DiscoveRx HitHunter cAMP XS+ assay.
(§2) For profiling compound in agonist mode, the cells were incubated in the presence of compound at 37° C. for 30 minutes. […] After appropriate compound incubation, assay signal was generated through incubation with DiscoverX lysis cocktail according to the manufacturers standard protocol. Dose curves were plotted using GraphPad Prism or Activity Base. Percentage activity is calculated using the following formula: % Activity=100%×(mean RLU of test sample−mean RLU of vehicle control)/(mean RLU of MAX control−mean RLU of vehicle control).

[2] = biological target: T2, VIPR2 (Homo sapiens, UniProt P41587); assay: as above; type: cell-based
T2 sequence (P41587 24-438): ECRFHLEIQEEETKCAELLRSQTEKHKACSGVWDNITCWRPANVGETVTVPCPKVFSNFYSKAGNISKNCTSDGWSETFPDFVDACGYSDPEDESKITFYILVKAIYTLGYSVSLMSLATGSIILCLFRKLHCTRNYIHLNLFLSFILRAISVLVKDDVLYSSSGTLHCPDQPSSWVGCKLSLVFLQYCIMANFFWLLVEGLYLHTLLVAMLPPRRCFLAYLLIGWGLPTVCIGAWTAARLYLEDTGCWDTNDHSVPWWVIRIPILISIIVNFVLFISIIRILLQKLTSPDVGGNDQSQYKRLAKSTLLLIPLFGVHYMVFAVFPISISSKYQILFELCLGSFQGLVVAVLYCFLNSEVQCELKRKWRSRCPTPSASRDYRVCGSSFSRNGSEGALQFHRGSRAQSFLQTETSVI
Experimental: as §1, §2

[3] = biological target: T3, Glucagon receptor (Rattus norvegicus, UniProt P30082); details: cited from earlier work
T3 construct: Enhances glucose-stimulated; from tissue; host or cells: rat liver membranes (value quoted from the literature)

[4] = biological target: T4, human calcitonin receptor (Homo sapiens, UniProt P30988); details: read-out: EC50, agonist for the human calcitonin receptor; cited from earlier work
T4 sequence (P30988 25-474): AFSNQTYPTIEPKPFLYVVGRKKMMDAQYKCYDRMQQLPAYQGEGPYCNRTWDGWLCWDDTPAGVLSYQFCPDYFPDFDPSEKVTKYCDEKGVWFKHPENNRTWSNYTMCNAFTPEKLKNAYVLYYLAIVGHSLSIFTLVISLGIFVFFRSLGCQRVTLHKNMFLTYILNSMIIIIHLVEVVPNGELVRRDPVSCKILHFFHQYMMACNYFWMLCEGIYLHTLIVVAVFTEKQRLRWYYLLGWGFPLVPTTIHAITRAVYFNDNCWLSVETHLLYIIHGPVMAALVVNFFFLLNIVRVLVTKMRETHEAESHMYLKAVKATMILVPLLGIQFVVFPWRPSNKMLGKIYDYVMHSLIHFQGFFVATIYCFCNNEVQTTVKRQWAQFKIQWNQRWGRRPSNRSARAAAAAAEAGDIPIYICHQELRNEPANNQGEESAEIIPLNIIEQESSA

T3 sequence (P30082 27-485): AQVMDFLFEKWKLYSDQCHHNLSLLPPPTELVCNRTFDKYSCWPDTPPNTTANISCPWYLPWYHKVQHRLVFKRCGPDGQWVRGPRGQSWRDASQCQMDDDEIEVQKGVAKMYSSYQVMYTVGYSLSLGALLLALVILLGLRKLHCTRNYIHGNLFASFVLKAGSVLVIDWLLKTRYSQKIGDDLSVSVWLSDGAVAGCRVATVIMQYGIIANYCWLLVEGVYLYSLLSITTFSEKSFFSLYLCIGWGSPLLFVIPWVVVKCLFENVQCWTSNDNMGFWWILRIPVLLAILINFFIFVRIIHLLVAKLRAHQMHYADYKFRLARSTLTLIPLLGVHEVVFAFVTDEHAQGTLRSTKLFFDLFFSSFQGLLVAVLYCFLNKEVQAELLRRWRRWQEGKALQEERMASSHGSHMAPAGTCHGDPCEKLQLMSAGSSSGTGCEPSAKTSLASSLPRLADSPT

% Activity ([1]; 1.03E−07 M compound): 91.7% | % Activity ([1]; 1.03E−08 M compound): 1.5% | Mean RLU ([1]; 1.03E−08 M compound): 13700.0 RLU | % Activity ([1]; 1.03E−09 M compound): −1.4% | Mean RLU ([1]; 1.03E−09 M compound): 13500.0 RLU | % Activity ([1]; 1.03E−10 M compound): −2.9% | Mean RLU ([1]; 1.03E−10 M compound): 9960.0 RLU | % Activity ([1]; 1.03E−11 M compound): −1.5% | Mean RLU ([1]; 1.03E−11 M compound): 10500.0 RLU | % Activity ([1]; 1.03E−12 M compound): −1.7% | Mean RLU ([1]; 1.03E−12 M compound): 10340.0 RLU | % Activity ([1]; 5.03E−07 M compound): 99.5% | % Activity ([1]; 5.03E−08 M compound): 83.9% | % Activity ([1]; 5.03E−09 M compound): 1.2% | Mean RLU ([1]; 5.03E−09 M compound): 13200.0 RLU | % Activity ([1]; 5.03E−10 M compound): −2.2% | Mean RLU ([1]; 5.03E−10 M compound): 9520.0 RLU | activation of VIPR1 ([1]; FIG. 3): fully activate VIPR1 | activation of VIPR2 ([2]; FIG. 3): not activate VIPR2
Compound: CC[C@H](C)[C@H](NC(=O)[C@H]1CCC[C@@H]1NC(=O)[C@H](CC(N)=O)NC(=O)[C@H](CC(C)C)NC(=O)[C@H](Cc1ccc(O)cc1)NC(=O)[C@H]1CNC[C@@H]1NC(=O)[C@H](CCCCN)NC(=O)[C@@H](NC(=O)[C@H]1CCC[C@@H]1NC(=O)[C@H](CC(C)C)NC(=O)[C@H](CCC(N)=O)NC(=O)[C@H](CCCCN)NC(=O)[C@H]1CNC[C@@H]1NC(=O)[C@H](CC(C)C)NC(=O)[C@H](CCCNC(=N)N)NC(=O)[C@H]1CCC[C@@H]1NC(=O)[C@H](Cc1ccc(O)cc1)NC(=O)[C@H](CC(N)=O)NC(=O)[C@H](CC(=O)O)NC(=O)[C@@H](NC(=O)[C@H](Cc1ccccc1)NC(=O)[C@@H](NC(=O)[C@H](C)NC(=O)[C@H](CC(=O)O)NC(=O)[C@H](CO)NC(=O)[C@@H](N)Cc1c[nH]cn1)C(C)C)[C@@H](C)O)C(C)C)C(=O)N[C@@H](CC(C)C)C(=O)N[C@@H](CC(N)=O)C(N)=O [Compound 8, HSDAVFTDNYXRLZKQLXVKZYLNXILN]
interaction with VIPR2 [2]: does not interact substantially with VIPR2

Compound: des-His1-{Glu9}-Glucagon (1-29) amide
agonist activity at the glucagon receptor [3]: activation in rat liver membranes); displays no agonist activity. Enhances glucose-stimulated | pA2 for inhibition of glucagon-induced adenylyl cyclase activation in rat liver membranes [3]: (Glucagon receptor antagonist (pA2 = 7.2 for inhibition of glucagon-induced adenylyl cyclase

Compound: PHM 27 (human) (HADGVFTSDFSKLLGQLSAKKYLESLM-NH2; UniProt P01282 81-107, looked up)
EC50 [4]: 11 nM
